Laboratory results published in patent US10028992B2, “Methods of treating muscular dystrophy” (BOARD OF REGENTS OF THE NEVADA SYSTEM OF HIGHER EDUCATION …, priority 2012, dated 2018).

System: α7 integrin promoter
Assay: muscle cell-based assay: α7βgal+/− myoblasts/myotubes, LacZ reporter, β-galactosidase cleavage of FDG
Design: species or system mouse; Results in α7+/− β-galactosidase assay: scale not given here
Settings: Myoblasts
Method in brief: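 Primary α7βgal+/− mouse myoblasts (LacZ knocked into α7 integrin exon 1, promoter retained), differentiated; promoter activity read as β-galactosidase conversion of non-fluorescent FDG to fluorescein. Hits followed by dose-response, western analysis and myostatin counterscreen.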

| SMILES | Results in α7+/− β-galactosidase assay (0.5 uM) | Results in α7+/− β-galactosidase assay (1 uM) | Results in α7+/− β-galactosidase assay (5 uM) | Results in α7+/− β-galactosidase assay (10 uM) | Results in α7+/− β-galactosidase assay (20 uM) | Results in α7+/− β-galactosidase assay (40 uM) |
| --- | --- | --- | --- | --- | --- | --- |
| Cc1cccc2c(/N=N/c3ccc(S(=O)(=O)Nc4ccc(Cl)cc4)cc3[N+](=O)[O-])c(O)[nH]c12 [drawing 605] | −0.02621 | −0.05717 | −0.2201 | −0.3043 | −0.4039 | −0.5304 |
| CC(C)c1ccc(OC(=O)c2cccc(S(=O)(=O)N3CCN(C)CC3)c2)cc1 [drawing 606] | −0.02855 | −0.1053 | 0.3741 | −0.02381 | 0.03734 | −0.08446 |
| CC(C)c1ccc(NC(=O)CN2C(=O)c3ccccc3S2(=O)=O)cc1 [drawing 607] | −0.1297 | −0.1704 | 0.367 | −0.05458 | −0.03658 | −0.09806 |
| NC(=O)c1sc2nc3c(cc2c1N)CCC3 [drawing 608] | 0.003482 | 0.04559 | 0.02429 | 0.07579 | 0.3169 | 0.4925 |
| O=C(Nc1ccccc1OC(=O)c1ccc(Cl)cc1)c1ccc(Cl)cc1 [drawing 609] | 0.03104 | 0.01493 | −0.04769 | −0.1879 | 0.6323 | −0.3765 |
| CC(NC(=O)c1ccc(C(C)(C)C)cc1)C(c1cccs1)N1CCOCC1 (stereo not drawn) [drawing 610] | 0.08931 | 0.1802 | 0.07478 | −0.02239 | −0.1131 | −0.1382 |
| CCC(=O)c1ccc(OCC(O)CN2CCOC(C)C2)cc1.O=C(O)C(=O)O (stereo not drawn) [drawing 611] | 0.222 | 0.08832 | −0.02345 | −0.1332 | 0.0354 | 0.02206 |
| CC1CCN(C(CNS(=O)(=O)c2ccccc2)c2ccccc2)CC1 (stereo not drawn) [drawing 612] | 0.05229 | −0.05932 | −0.02531 | −0.1141 | −0.291 | −0.3822 |
| COC(=O)c1ccc(/N=N/c2ccccc2)cc1 [drawing 613] | 0.1047 | 0.17 | −0.07402 | −0.1217 | −0.1237 | −0.2361 |
| CN(CCC1CCCCO1)C(=O)CCc1nnc(CCCCc2ccccc2)o1 (stereo not drawn) [drawing 615] | −0.05982 | −0.07538 | −0.00182 | −0.02349 | 0.02509 | −0.00588 |
| c1ccc(-c2nn[nH]n2)nc1 [drawing 616] | −0.1138 | −0.161 | 0.4758 | −0.06661 | 0.6134 | −0.02456 |
| O=C(N/N=C/c1c[nH]c2ccccc12)c1cc(Cl)ccc1O [drawing 617] | −0.1174 | −0.2374 | 0.2235 | −0.05174 | −0.06378 | −0.0655 |
| O=C(O)C(Cc1ccc(O)cc1)N1C(=O)c2ccccc2C1=O (stereo not drawn) [drawing 619] | 0.1486 | 0.2007 | 0.1591 | −0.04895 | 0.03548 | 0.007087 |
| CCN(CC)C(=O)c1sc2nc(-c3ccc(OC)cc3)cn2c1C [drawing 620] | −0.00349 | −0.01981 | −0.06604 | −0.2175 | −0.4369 | −0.6089 |
| Cc1ccsc1-c1nnc(S)n1C1CCCCC1 [drawing 621] | 0.007736 | 0.002953 | 0.06001 | −0.06828 | −0.1538 | −0.1034 |
| O=C(N[C@@H](Cc1c[nH]c2ccccc12)C(=O)O)C1CCN(S(=O)(=O)c2cccs2)CC1 [drawing 622] | −0.07999 | −0.01966 | −0.1194 | −0.09397 | −0.02534 | −0.04251 |
| COC(=O)Cn1c(=O)c2c(nc3n2CC(C)CN3Cc2ccccc2)n(C)c1=O (stereo not drawn) [drawing 623] | −0.176 | −0.2606 | −0.02637 | −0.1756 | −0.2725 | −0.3826 |
| CCOC(=O)c1cc(C(=O)OCC)c(SCc2ccccc2)nc1O [drawing 624] | −0.1519 | −0.22 | 0.001928 | −0.1374 | −0.174 | −0.1694 |
| Oc1nc2ccccc2nc1-c1c[nH]c2ccccc12 [drawing 625] | −0.1557 | −0.2438 | −0.1427 | −0.1781 | −0.49 | −0.6715 |
| O=C(Nc1cc(-c2nc3ccccc3s2)ccc1Cl)c1ccc2c(c1)OCO2 [drawing 626] | −0.04702 | −0.1444 | 0.02573 | 0.1301 | −0.1679 | −0.4411 |
| Cn1c(-c2ccccc2)cc2ccccc21 [drawing 627] | 0.02349 | −0.0996 | −0.05693 | −0.02616 | −0.2661 | −0.4026 |
| COc1ccc(C(=O)/C=C2\C(=O)Nc3ccccc32)cc1OC [drawing 628] | 0.07545 | −0.02919 | 0.1241 | 0.1545 | −0.335 | −0.4748 |
| CC(C(=O)Nc1ccc(C#N)cc1)N(C)CC(=O)Nc1cccc(F)c1 (stereo not drawn) [drawing 629] | −0.05058 | −0.1543 | −0.4207 | −0.5078 | −0.8278 | −0.7653 |
| CC(C(=O)Nc1ccc(C#N)cc1)N(C)CC(=O)Nc1cccc(F)c1 (stereo not drawn) [drawing 630] | 0.01302 | −0.06275 | 0.01684 | 0.1242 | −0.01497 | −0.1721 |
| CC1Cc2ccccc2N1C(=O)CSc1nnc(N)s1 (stereo not drawn) [drawing 631] | 0.1058 | −0.02327 | 0.003792 | 0.1155 | −0.02505 | −0.07326 |
| CC(C)(C)NC(=O)NC(=O)CN1CCN(Cc2ccccc2)CC1 [drawing 632] | 0.1233 | −0.06967 | −0.04648 | 0.1725 | −0.02695 | −0.05859 |
| COc1cc(C=O)ccc1OCC(=O)Nc1ccc2c(c1)OCO2 [drawing 633] | 0.04105 | −0.1736 | 0.4398 | 0.09536 | −0.06607 | −0.1156 |
| Cc1ccccc1NC(=O)c1ccc2c(O)c(Sc3ccccc3)c(=O)[nH]c2c1 [drawing 634] | −0.01711 | −0.1427 | 0.008423 | −0.03481 | −0.0939 | −0.1611 |
